Legend:
[1] = Clinical study of methylphenidate delivery profiles in school children (SKAMP, CLAM, mathematics test, activity monitor); assay type: in vivo, human; details: 36 school children
Protocol: (§1) The CLAM Test is a behavior rating that indicates social conformity or rebellion as developed by Conners, Lonez, and Milch and SKAMP is a rating that also measures behavior as developed by Swanson and reported in Psychopharmacological Bulletin, Vol. 21, pp. 887-890 (1985).
(§2) The effect measurements in this study were: (1) observer ratings on SKAMP scale (during classroom time) and (2) performance on the computerized mathematics test. Each child was tested on the mathematics test before the study began, and based on this pre-test during the study, a mathematics test appropriate for each child's ability was given. The morning and evening parent CLAM assessments were used to identify unusual behaviors. The evening parent CLAM was used to determine the presence of treatment effects in the evening hours, particularly treatment effects on the time the child fell asleep, and whether the child's sleep was interrupted. All of the children also wore an activity monitor (Actigraph) which records the movements of the child throughout the day. The activity (number of movements per minute) is recorded electronically and modeled as a function of the drug effect.
The immediate release tablet and the sustained-release dosage form were compared to a sustained-release dosage form that administered methylphenidate in an ascending profile. The sustained-release ascending profile corresponds to administering 4.2 mg at zero hour, 1.1 mg at 1.5 hours, 1.1 mg at 2 hours, 1.2 mg at 2.5 hours, 1.2 mg at 3.0 hours, 1.3 mg at 3.5 hours, 1.3 mg at 4 hours, 1.5 mg at 4.5 hours, 1.5 mg at 5 hours, 1.8 mg at 5.5 hours, 1.8 mg at 6 hours, and 2.0 mg at 6.5 hours, to produce the sustained-ascending release dotted line profile seen in Figure 2.
The accompanying figures present the results of the above-described study. […]

[2] = Clinical study of sustained-ascending versus three-times-a-day immediate release methylphenidate (behavior, combined attention); assay type: in vivo, human
Protocol: as §1, §2
The results of a clinical study that comprises administering methylphenidate according to two distinct delivery programs are reported in this example. In the study, a sustained-ascending profile corresponds to administering methylphenidate as follows: 8 mg at zero hours, 1.4 mg at 1.5 hours, 1.4 mg at 2.0 hours, 1.7 mg at 2.5 hours, 1.7 mg at 3.0 hours, 2.0 mg at 3.5 hours, 2.0 mg at 4.0 hours, 2.2 mg at 4.5 hours, 2.2 mg at 5.0 hours, 2.2 mg at 5.5 hours, 2.2 mg at 6.0 hours, 2.4 mg at 6.5 hours, 2.4 mg at 7.0 hours, 2.6 mg at 7.5 hours, and 1.9 mg at 8.0 hours. The methylphenidate was administered in overcoated capsules comprising a total of 36 mg of methylphenidate with 22% in the exterior overcoat. The ascending dose was administered with the first dose at 0730 followed by ascending doses every 30 minutes until 1530 to produce the intended ascending plasma concentration. […]

SMILES: COC(=O)C(c1ccccc1)C1CCCCN1 (stereo not drawn) [methylphenidate]
- therapeutic effect and tolerance ([1]; controlled-sustained ascending profile (4.2 mg at zero hour rising to 2.0 mg at 6.5 hours)): the desired therapeutic effect without tolerance
- clinical effect (activity, mathematical scores, inappropriate behavior) ([1]; sustained-nonascending dose, 20 mg methylphenidate (8.3 mg at zero hour then 0.9 mg every 0.5 h to 7.5 hours)): a decrease in activity, higher mathematical scores and a lessening of inappropriate behavior
- acute tolerance ([1]; sustained-nonascending dose, 20 mg methylphenidate): development of acute tolerance
- behavior, acquired tolerance ([2]; sustained ascending program, 36 mg total, 0730 to 1530, 32 children with attention deficient hyperactivity disorder, Figure 7): absence of acquired tolerance
- combined attention parameter, developed tolerance ([2]; sustained-ascending release, 36 mg total, 32 children, Figure 8): essentially free of developed tolerance
- combined attention parameter, acquired tolerance ([2]; three daily immediate release, 10 mg at 0730, 1130 and 1530, 32 children, Figure 8): with acquired tolerance
